In US9403830B2, “Inhibitors of leukotriene production” (Boehringer Ingelheim International GmbH, priority 2012, dated 2016) one finds IC50 data, which are given here for 23 compounds.

One test concerns the target T1, human LTA4 hydrolase (Homo sapiens, UniProt P09960).
T1 sequence (P09960 1-611): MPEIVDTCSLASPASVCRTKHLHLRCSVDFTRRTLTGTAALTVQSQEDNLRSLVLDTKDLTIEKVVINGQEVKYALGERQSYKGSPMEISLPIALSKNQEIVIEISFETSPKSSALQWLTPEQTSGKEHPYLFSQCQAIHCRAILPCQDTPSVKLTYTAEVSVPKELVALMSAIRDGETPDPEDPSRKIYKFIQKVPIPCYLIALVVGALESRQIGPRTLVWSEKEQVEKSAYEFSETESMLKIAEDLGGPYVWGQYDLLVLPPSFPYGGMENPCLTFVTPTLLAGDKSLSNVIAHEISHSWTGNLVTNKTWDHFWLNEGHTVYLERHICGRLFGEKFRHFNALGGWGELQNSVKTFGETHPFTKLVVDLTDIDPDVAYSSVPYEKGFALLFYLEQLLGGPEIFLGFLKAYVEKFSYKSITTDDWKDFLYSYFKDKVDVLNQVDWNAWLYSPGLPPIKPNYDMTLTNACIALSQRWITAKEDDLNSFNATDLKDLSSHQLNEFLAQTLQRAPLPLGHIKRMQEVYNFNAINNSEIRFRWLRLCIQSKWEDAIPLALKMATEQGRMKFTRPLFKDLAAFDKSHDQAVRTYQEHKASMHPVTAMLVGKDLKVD
Briefly: LTA4H Enzyme assay (peptidase, Arg-AMC cleavage). The format is biochemical. The following applies: LTA4H enzyme 1 nM, Arg-AMC substrate 50 μM, room temperature 1 h, fluorescence 380/460 nm. The method, boiled down:
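Human LTA4H (1 nM final) incubated with compound and Arg-AMC (50 μM final) in 50 mM Tris-HCl pH 7.5, 100 mM KCl, 0.5% BSA, 1 h at room temperature. Product read as AMC fluorescence (ex 380/em 460 nm); IC50 reported.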

In test [1] the test system is LTB4 synthesis in human whole blood. Briefly: human whole blood (HWB) assay, inhibition of LTB4 production. The format is cell-based. To be noted: heparinized human whole blood, calcimycin 20 μM stimulation, plasma LTB4. The method, boiled down:
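Heparinized human whole blood preincubated with compound 15 min at 37 °C, then stimulated with 20 μM (final) calcimycin for 30 min at 37 °C. Plasma LTB4 measured by antibody-based HTRF; IC50 reported.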

SMILES strings stand for the structures.

Usually IC50 stands for the concentration at which inhibition is half-maximal. As for `O=C1OCCCN1C1CCN(Cc2ccc3cc(Oc4ccc(-c5ccn[nH]5)cn4)ccc3n2)CC1` [Example 190, 3-(1-{6-[5-(2H-Pyrazol-3-yl)-pyridin-2-yloxy]-quinolin-2-ylmethyl}-piperidin-4-yl)-[1,3]oxazinan-2-one], the values for the IC50 (against human LTA4 hydrolase; in test [1]) were 0.53 nM and 170 nM, respectively.

With `CCNCc1nc2cc(Oc3ccc(-c4ccn[nH]4)cc3)ccc2[nH]1` [Example 191, Ethyl-{5-[4-(2H-pyrazol-3-yl)-phenoxy]-1H-benzoimidazol-2-ylmethyl}-amine], the IC50 at human LTA4 hydrolase was determined as 0.18 nM; in test [1], 170 nM.

Turning to `CCN(CCO)Cc1nc2cc(Oc3ccc(-c4ccn[nH]4)cc3)ccc2[nH]1` [Example 192, 2-(Ethyl-{5-[4-(2H-pyrazol-3-yl)-phenoxy]-1H-benzoimidazol-2-ylmethyl}-amino)-ethanol], the IC50 was determined as 0.17 nM against human LTA4 hydrolase and 170 nM in test [1].

For the compound `CCOCC1CCN(Cc2nc3cc(Oc4ccc(-c5ccn[nH]5)cc4)ccc3[nH]2)CC1` [Example 193, 2-(4-Ethoxymethyl-piperidin-1-ylmethyl)-5-[4-(2H-pyrazol-3-yl)-phenoxy]-1H-benzoimidazole], the IC50 at human LTA4 hydrolase is 0.13 nM; in test [1] it was 170 nM.

Regarding `c1cc(-c2ccc(Oc3ccc4[nH]c(CN[C@H]5CCOC5)nc4c3)cc2)[nH]n1` [Example 194, {5-[4-(2H-Pyrazol-3-yl)-phenoxy]-1H-benzoimidazol-2-ylmethyl}-(S)-tetrahydro-furan-3-yl-amine], the half-inhibitory concentration (IC50) against human LTA4 hydrolase was determined as 0.18 nM; in test [1], 180 nM.

In the case of `OCC1CCCCN1Cc1nc2cc(Oc3ccc(-c4ccn[nH]4)cc3)ccc2[nH]1` (stereo not shown) [Example 195, (1-{5-[4-(2H-Pyrazol-3-yl)-phenoxy]-1H-benzoimidazol-2-ylmethyl}-piperidin-2-yl)-methanol], the figures for the IC50 (on human LTA4 hydrolase; in test [1]) were 0.14 nM and 180 nM, respectively.

As for `FC(F)(F)C1CCN(Cc2nc3cc(Oc4ccc(-c5ccn[nH]5)cc4)ccc3[nH]2)C1` (stereo not shown) [Example 196, 5-[4-(2H-Pyrazol-3-yl)-phenoxy]-2-(3-trifluoromethyl-pyrrolidin-1-ylmethyl}-1H-benzoimidazole], the concentration for half-maximal inhibition (IC50) against human LTA4 hydrolase was determined as 0.17 nM; in test [1] it was 180 nM.

For `CN(C)C(=O)C1CCN(CC2Cc3ccc(Oc4ccc(-c5ccn[nH]5)cc4)cc3O2)CC1` (stereo not shown) [Example 197, 1-{6-[4-(2H-Pyrazol-3-yl)-phenoxy]-2,3-dihydro-benzofuran-2-ylmethyl}-piperidine-4-carboxylic acid dimethylamide], the concentration for half-maximal inhibition (IC50) amounted to 0.46 nM against human LTA4 hydrolase and 180 nM in test [1].

Take `O=C1CCCN1C1CCN(CC2Cc3ccc(Oc4ccc(-c5ccn[nH]5)cc4)cc3O2)CC1` (stereo not shown) [Example 198, 1-(1-{6-[4-(2H-Pyrazol-3-yl)-phenoxy]-2,3-dihydro-benzofuran-2-ylmethyl}-piperidin-4-yl)-pyrrolidin-2-one]: the concentration for half-maximal inhibition (IC50) was determined as 0.35 nM against human LTA4 hydrolase and 180 nM in test [1].

Take `CCCN(CCO)Cc1nc2cc(Oc3ccc(-c4ccn[nH]4)cc3)ccc2[nH]1` [Example 199, 2-(Propyl-{5-[4-(2H-pyrazol-3-yl)-phenoxy]-1H-benzoimidazol-2-ylmethyl}-amino)-ethanol]: the concentration for half-maximal inhibition (IC50) was found to be 0.13 nM on human LTA4 hydrolase and 190 nM in test [1].

For `CC(=O)N[C@@H]1CCN(CCn2cc3cc(Oc4ccc(-c5ccn[nH]5)cc4)ccc3n2)C1` [Example 200, N-[(R)-1-(2-{5-[4-(2H-Pyrazol-3-yl)-phenoxy]-indazol-2-yl}-ethyl)-pyrrolidin-3-yl]-acetamide], the IC50 at human LTA4 hydrolase was 0.47 nM; in test [1], 190 nM.

For the compound `c1cc(-c2ccc(Oc3ccc4[nH]c(CC5CCOCC5)nc4c3)cc2)[nH]n1` [Example 202, 5-[4-(2H-Pyrazol-3-yl)-phenoxy]-2-(tetrahydro-pyran-4-ylmethyl)-1H-benzoimidazole], the IC50 was 0.32 nM on human LTA4 hydrolase and 200 nM in test [1].

As for `O=C1OCCN1C1CCN(CC2Cc3ccc(Oc4ccc(-c5ccn[nH]5)cc4)cc3O2)CC1` (stereo not shown) [Example 203, 3-(1-{6-[4-(2H-Pyrazol-3-yl)-phenoxy]-2,3-dihydro-benzofuran-2-ylmethyl}-piperidin-4-yl)-oxazolidin-2-one], the IC50 at human LTA4 hydrolase worked out at 0.77 nM; in test [1], 200 nM.

Consider `OC1CCN(Cc2ccc3cc(Oc4ccc(-c5ccn[nH]5)cn4)ccc3n2)CC1` [Example 204, 1-{6-[5-(2H-Pyrazol-3-yl)-pyridin-2-yloxy]-quinolin-2-ylmethyl}-piperidin-4-ol], for which the IC50 is 0.98 nM against human LTA4 hydrolase and 210 nM in test [1].

For the compound `CO[C@@H]1CCN(Cc2ccc3cc(Oc4ccc(-c5ccn[nH]5)cn4)ccc3n2)C1` [Example 205, 2-((R)-3-Methoxy-pyrrolidin-1-ylmethyl)-6-[5-(2H-pyrazol-3-yl)-pyridin-2-yloxy]-quinoline], the half-maximal inhibitory concentration (IC50) on human LTA4 hydrolase was 1.2 nM; in test [1], 210 nM.

With `c1cc(-c2ccc(Oc3ccc4nn(CCNCC5CCOCC5)cc4c3)cc2)[nH]n1` [Example 206, (2-{5-[4-(2H-Pyrazol-3-yl)-phenoxy]-indazol-2-yl}-ethyl)-(tetrahydro-pyran-4-ylmethyl)-amine], the IC50 against human LTA4 hydrolase came out at 0.42 nM; in test [1], 210 nM.

Consider `c1cc(-c2ccc(Oc3ccc4[nH]c(C[C@@H]5CCCN5)nc4c3)cc2)[nH]n1` [Example 207, 5-[4-(2H-Pyrazol-3-yl)-phenoxy]-2-(S)-1-pyrrolidin-2-ylmethyl-1H-benzoimidazole], for which the values for the half-maximal inhibitory concentration (IC50) (against human LTA4 hydrolase; in test [1]) were 0.17 nM and 220 nM, respectively.

As to `CO[C@H]1CCN(Cc2ccc3cc(Oc4ccc(-c5ccn[nH]5)cn4)ccc3n2)C1` [Example 208, 2-((S)-3-Methoxy-pyrrolidin-1-ylmethyl)-6-[5-(2H-pyrazol-3-yl)-pyridin-2-yloxy]-quinoline], the half-inhibitory concentration (IC50) is 1.2 nM against human LTA4 hydrolase and 220 nM in test [1].

As for `O=C1CCCCN1C1CCN(Cc2ccc3cc(Oc4ccc(-c5ccn[nH]5)cn4)ccc3n2)CC1` [Example 209, 1′-{6-[5-(2H-Pyrazol-3-yl)-pyridin-2-yloxy]-quinolin-2-ylmethyl}-[1,4′]bipiperidinyl-2-one], the half-maximal inhibitory concentration (IC50) on human LTA4 hydrolase came to 0.66 nM; in test [1], 220 nM.

In the case of `O[C@H]1CCN(Cc2ccc3cc(Oc4ccc(-c5ccn[nH]5)cn4)ccc3n2)C1` [Example 210, (S)-1-{6-[5-(2H-Pyrazol-3-yl)-pyridin-2-yloxy]-quinolin-2-ylmethyl}-pyrrolidin-3-ol], the IC50 at human LTA4 hydrolase stood at 0.82 nM; in test [1], 230 nM.

With `O=C1COCCN1C1CCN(Cc2ccc3cc(Oc4ccc(-c5ccn[nH]5)cn4)ccc3n2)CC1` [Example 211, 4-(1-{6-[5-(2H-Pyrazol-3-yl)-pyridin-2-yloxy]-quinolin-2-ylmethyl}-piperidin-4-yl)-morpholin-3-one], the values for the IC50 (against human LTA4 hydrolase; in test [1]) were 0.8 nM and 230 nM, respectively.

As for `COC1CCN(Cc2ccc3cc(Oc4ccc(-c5ccn[nH]5)cn4)ccc3n2)CC1` [Example 212, 2-(4-Methoxy-piperidin-1-ylmethyl)-6-[5-(2H-pyrazol-3-yl)-pyridin-2-yloxy]-quinoline], the half-maximal inhibitory concentration (IC50) was 1.2 nM against human LTA4 hydrolase and 250 nM in test [1].

Regarding `O=c1cccc2n1C[C@H]1C[C@@H]2CN(Cc2ccc3cc(Oc4ccc(-c5ccn[nH]5)cn4)ccc3n2)C1` [Example 213, (1R,5S)-3-{6-[5-(2H-Pyrazol-3-yl)-pyridin-2-yloxy]-quinolin-2-ylmethyl}-1,2,3,4,5,6-hexahydro-1,5-methano-pyrido[1,2-a][1,5]diazocin-8-one], the IC50 was 0.77 nM at human LTA4 hydrolase and 390 nM in test [1].
